One block for each compound: values may come before it.
How the values were obtained:
[1] = biological target: T1, glutamine transporter SLC1A5 (Mus musculus, UniProt P51912); experiment: CTX muscle injury with SLC1A5 inhibition by GPNA, proliferating muscle precursors; type: in vivo, mice; set-up: from tissue; host or cells: living CTRL and Glud1 ΔMo mice (C57BL/6); read-out in tibialis anterior muscle; settings: Glud1ΔMo TA muscles 1 day after CTX injury; GPNA 3 times per day, oral, vs vehicle
T1 sequence (P51912 1-553): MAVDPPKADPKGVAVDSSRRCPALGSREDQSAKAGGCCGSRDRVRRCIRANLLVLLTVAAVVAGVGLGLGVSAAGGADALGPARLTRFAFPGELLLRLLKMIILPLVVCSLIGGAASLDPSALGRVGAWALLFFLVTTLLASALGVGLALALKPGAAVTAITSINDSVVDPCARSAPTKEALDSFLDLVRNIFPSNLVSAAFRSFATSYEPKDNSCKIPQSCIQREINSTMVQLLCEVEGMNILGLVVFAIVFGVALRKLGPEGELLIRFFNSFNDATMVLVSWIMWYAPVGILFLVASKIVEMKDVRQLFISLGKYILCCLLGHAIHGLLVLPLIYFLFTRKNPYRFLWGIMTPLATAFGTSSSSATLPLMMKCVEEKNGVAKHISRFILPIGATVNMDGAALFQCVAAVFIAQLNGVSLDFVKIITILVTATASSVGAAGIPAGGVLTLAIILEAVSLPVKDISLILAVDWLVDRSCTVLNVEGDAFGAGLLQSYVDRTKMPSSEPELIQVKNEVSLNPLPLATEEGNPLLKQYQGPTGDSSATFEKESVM
Description: m: Quantification of proliferating muscle precursors on sections of TA muscles 1 day after CTX injury, stained for PHH3 and laminin. CTRL and Glud1^ΔM0 mice were treated 3 times per day with the SLC1A5 inhibitor GPNA, or vehicle as control. Number of samples included in the analysis: CTRL with vehicle, n=5; Glud1^ΔMo with vehicle, n=5; CTRL with GPNA, n=8; Glud1^ΔMo with GPNA, n=8.
(§1) Mice were anaesthetized with isoflurane and 50 μl of 10 μM CTX was injected in the tibialis anterior (TA) muscle. Muscles were harvested for analysis at different time points post-injury (day 1 and day 6). In vivo GLUD1 inhibition was achieved by bi-daily gavage of R162 (Focus Biomolecules) at 0.6 mg/mouse. Mice were pretreated 1 day before CTX injection or ischemic ligation. Afterwards, mice continued to receive daily treatment until their sacrifice. To inhibit SLC1A5, mice were treated 3 times per day with 500 mM GPNA (Sigma-Aldrich). […]
(§2) 7 μm-thick cryosections were obtained by using a Leica cryostat from frozen muscles collected in optimal cutting temperature compound (OCT). […] Necrotic and regenerating muscle fibers, were detected by H&E staining as previously described (Takeda et al. 2011, Nature 479:122-126) and analysed by ImageJ software. […] Whenever sections were stained in fluorescence, ProLong Gold mounting medium with or without DAPI (Invitrogen) was used. […]

[2] = biological target: T1, glutamine transporter SLC1A5; experiment: [U-14C]-glutamine uptake in C2C12 cells; type: cell-based, murine; set-up: endogenous in cells; host or cells: C2C12 myoblast cell line
Description: e: [U-^14C]-glutamine uptake in SLC1A5-deficient C2C12 cells obtained by co-expressing the Cas9 along with a gRNA targeting the Slc1a5 locus. Wild type cells (Ctrl) and a non-targeting scrambled (Scrl) gRNA were used as negative controls. C2C12 cells treated with SLC1A5 inhibitor gamma-L-Glutamyl-p-Nitroanilide (GPNA) was used as a positive control.
BMDMs were incubated in M199 medium (Gibco) supplemented with 10% FBS and 0.5 μCi/ml [U-^14C]-glutamine for 30 min at 37° C. Cells were lysed in 1N NaOH and the radioactivity was measured by liquid scintillation counting.

[3] = biological target: glutamine synthetase (GS) (Mus musculus, UniProt P15105); settings: GLUD1-deficient BMDMs, glutamine deprivation, 1 mM MSO for 48 hours
Description: o: Quantification (by GC-MS) of extracellular glutamine content from BMDMs under glutamine deprivation treated with and without MSO.
Briefly, bone marrow cells (1.6×10^6 cells/ml) were cultured in a volume of 6 ml in a 10 cm Petri dish in DMEM supplemented with 20% FBS and 30% L929 conditioned medium as a source of M-CSF. After 3 days of culture, an additional 3 ml of differentiation medium was added. At day 7, macrophages were harvested with ice cold Ca2^+ and Mg2^+-free PBS. The cells obtained were uniformly macrophages as assessed by FACS, using the pan-macrophage marker F4/80.
For mass spectrometry analysis of glutamate and glutamine, 2×10^6 cell pellets were washed twice in PBS and extracted in 500 μl of 80% methanol (80-20, methanol-water). Upon extraction, samples were centrifuged at 20.000×g for 15 min and the supernatant was dried using a vacuum centrifuge. Twenty-five μl of a 2% methoxyamine hydrochloride solution (20 mg dissolved in 1 ml pyridine) were added to the dried pellet and the tubes were then placed at 37° C. for 90 min. […] The mass spectrometer operated in SIM mode, glutamine and glutamate were determined from the m/z 341.2 and 342.2 respectively. For the quantification we used the Agilent Masshunter Quan tool.

GLUD1 [4] = settings: cited from earlier work
GLUD1 [5] = biological target: T2, GLUD1 (Mus musculus, UniProt P26443); experiment: Cardiotoxin (CTX) muscle injury of tibialis anterior, R162 by bi-daily gavage; type: in vivo; settings: wild type mice
T2 construct: from tissue; host or cells: living C57BL/6 wild-type mice; systemic exposure, read-out in tibialis anterior / crural muscle
Text: a-c: Quantification of regenerating fibers (a) and intact differentiated fibers (b) on H&E-stained sections (c) from TA muscles 6 days after CTX injury. Wild type mice were bi-daily treated with R162, or vehicle as control.
d-e: Quantification (d) and representative images (e) of F4/80^+ area in TA muscles, 6 days after CTX injury. Wild type mice were bi-daily treated with R162, or vehicle as control.
f-g: Quantification (f) and representative images (g) of proliferating muscle precursors on sections of TA muscles 1 day after CTX injury, stained for PHH3 and laminin. Wild type mice were bi-daily treated with R162, or vehicle as control.
Mice were anaesthetized with isoflurane and 50 μl of 10 μM CTX was injected in the tibialis anterior (TA) muscle. Muscles were harvested for analysis at different time points post-injury (day 1 and day 6). In vivo GLUD1 inhibition was achieved by bi-daily gavage of R162 (Focus Biomolecules) at 0.6 mg/mouse. Mice were pretreated 1 day before CTX injection or ischemic ligation. Afterwards, mice continued to receive daily treatment until their sacrifice. To inhibit SLC1A5, mice were treated 3 times per day with 500 mM GPNA (Sigma-Aldrich). CTX was injected 1 hour after the first gavage, and mice were sacrificed 24 hours afterwards.
7 μm-thick cryosections were obtained by using a Leica cryostat from frozen muscles collected in optimal cutting temperature compound (OCT). Alternatively, tibialis anterior and calf muscles (gastrocnemius) were fixed in 2% paraformaldehyde, dehydrated, embedded in paraffin, and sectioned at 7 μm thickness. Necrotic and regenerating muscle fibers, were detected by H&E staining as previously described (Takeda et al. 2011, Nature 479:122-126) and analysed by ImageJ software. After deparaffinization and rehydration, muscle sections were permeabilized by a solution containing 1% BSA, 0.2% Triton-X in PBS 30 min at RT and blocked with Donkey serum (Sigma)1 h at RT. […] Whenever sections were stained in fluorescence, ProLong Gold mounting medium with or without DAPI (Invitrogen) was used. […]

GLUD1 [6] = biological target: T2, GLUD1; experiment: Hindlimb ischemia (femoral artery ligation), R162 by bi-daily gavage; type: in vivo; settings: crural muscles 14 days after ligation; wild type mice; bi-daily R162 vs vehicle
Description: h-j: Quantification of the necrotic area (h) and intact differentiated fibers (i) on H&E-stained sections (j) from crural muscles 14 days after ligation. Wild type mice were bi-daily treated with R162, or vehicle as control.
k-l: Quantification (k) and representative images (l) of F4/80^+ area in crural muscles, 14 days after ligation. Wild type mice were bi-daily treated with R162, or vehicle as control.
as §1, §2

T2 sequence (P26443 54-558): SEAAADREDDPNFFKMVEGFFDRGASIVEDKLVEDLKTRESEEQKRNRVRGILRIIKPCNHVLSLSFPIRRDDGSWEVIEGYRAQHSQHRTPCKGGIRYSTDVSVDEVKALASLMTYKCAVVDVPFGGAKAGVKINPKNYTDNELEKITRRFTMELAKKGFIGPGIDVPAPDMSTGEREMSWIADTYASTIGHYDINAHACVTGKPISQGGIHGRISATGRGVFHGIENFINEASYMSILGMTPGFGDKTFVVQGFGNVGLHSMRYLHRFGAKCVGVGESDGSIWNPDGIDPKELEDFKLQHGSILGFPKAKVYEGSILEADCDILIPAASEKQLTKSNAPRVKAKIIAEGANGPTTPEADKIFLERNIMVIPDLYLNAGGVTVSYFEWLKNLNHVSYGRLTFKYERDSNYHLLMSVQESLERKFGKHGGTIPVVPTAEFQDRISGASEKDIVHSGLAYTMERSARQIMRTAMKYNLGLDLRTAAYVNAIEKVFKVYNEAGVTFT
Chain of glutamine synthetase (GS) (P15105 2-373 limits assumed): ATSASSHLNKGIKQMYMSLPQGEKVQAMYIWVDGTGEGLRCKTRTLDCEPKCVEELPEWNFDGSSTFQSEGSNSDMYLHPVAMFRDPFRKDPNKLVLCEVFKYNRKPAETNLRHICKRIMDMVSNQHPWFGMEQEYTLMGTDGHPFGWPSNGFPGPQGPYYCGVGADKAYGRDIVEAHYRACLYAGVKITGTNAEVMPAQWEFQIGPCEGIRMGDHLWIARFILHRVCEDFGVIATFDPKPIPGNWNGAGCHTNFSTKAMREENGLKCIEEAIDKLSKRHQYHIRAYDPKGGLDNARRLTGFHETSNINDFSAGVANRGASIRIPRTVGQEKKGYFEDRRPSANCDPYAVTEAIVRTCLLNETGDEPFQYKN

- block of glutamine uptake [2]: 75%
SMILES: N[C@@H](CCC(=O)Nc1ccc([N+](=O)[O-])cc1)C(=O)O [GPNA, gamma-L-Glutamyl-p-Nitroanilide]
- abundance of proliferating myogenic precursors (PHH3, laminin) [1]: abolished the abundance of proliferating myogenic precursors

SMILES: CS(=N)(=O)CC[C@H](N)C(=O)O (stereo partly drawn) [MSO, L-methionine-SR-sulfoximine]
- extracellular glutamine production [3]: rescued back to the CTRL levels

SMILES: C=CCc1ccc2c(c1O)C(=O)c1ccccc1C2=O [R162, 2-allyl-1-hydroxy-9,10-anthraquinone]
- effect on tumor growth (GLUD1 [4]; Jin et al. 2015): therapeutic effect on tumor growth
- safety of use (GLUD1 [4]; mouse models of cancer therapy, Palmieri et al. 2017): safely used in mouse models of cancer therapy
- increase in the number of PHH3+ cells (proliferating muscle precursors) upon damage (GLUD1 [5]; TA muscles 1 day after CTX injury, bi-daily oral gavage of R162 vs vehicle): 60%
- quality of the muscle (regenerating fibers and intact differentiated fibers on H&E-stained sections) (GLUD1 [5]; TA muscles 6 days after CTX injury, bi-daily oral gavage of R162 0.6 mg/mouse vs vehicle): strongly improved the quality of the muscle
- inflammation (F4/80+ area) (GLUD1 [5]; TA muscles 6 days after CTX injury, bi-daily oral gavage of R162 vs vehicle): reduced inflammation
- inflammatory response (F4/80+ area) (GLUD1 [6]): resolution of the inflammatory response
- repair of the necrotic damage (necrotic area and intact differentiated fibers on H&E-stained sections) (GLUD1 [6]): improved repair of the necrotic damage
